Data as given in paper PMC2996585 (Journal of medicinal chemistry, 2010).
Entries after “also recorded” stand apart in the source; their conditions may differ. Read-outs that look alike come from different tables or passages of the source. Bridges are numbered along the chain shown (N, C = ends). Where no end group is shown, it is not given here.

Target: T1, ENaC (Homo sapiens, UniProt P37088)
T1 sequence (P37088 1-669): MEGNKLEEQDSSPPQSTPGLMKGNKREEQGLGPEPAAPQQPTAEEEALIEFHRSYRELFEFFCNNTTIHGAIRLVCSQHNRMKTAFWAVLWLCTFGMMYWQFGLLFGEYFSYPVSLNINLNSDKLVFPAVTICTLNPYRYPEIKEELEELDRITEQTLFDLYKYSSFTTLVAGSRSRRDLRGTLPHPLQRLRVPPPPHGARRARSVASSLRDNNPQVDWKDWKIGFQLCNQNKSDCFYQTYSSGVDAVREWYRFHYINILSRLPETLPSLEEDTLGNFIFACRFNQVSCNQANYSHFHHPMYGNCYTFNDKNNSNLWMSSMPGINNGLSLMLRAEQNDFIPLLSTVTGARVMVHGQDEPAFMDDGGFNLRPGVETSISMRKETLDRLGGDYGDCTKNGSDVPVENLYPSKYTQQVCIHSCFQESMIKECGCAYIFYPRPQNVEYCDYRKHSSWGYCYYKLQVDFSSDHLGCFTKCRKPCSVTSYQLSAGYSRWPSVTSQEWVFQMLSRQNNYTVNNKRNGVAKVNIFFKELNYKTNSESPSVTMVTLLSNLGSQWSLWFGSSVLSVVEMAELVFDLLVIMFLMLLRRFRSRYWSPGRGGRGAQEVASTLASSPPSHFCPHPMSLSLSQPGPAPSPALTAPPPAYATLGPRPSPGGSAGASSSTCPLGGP
T1 sequence (P51168 1-640 partner): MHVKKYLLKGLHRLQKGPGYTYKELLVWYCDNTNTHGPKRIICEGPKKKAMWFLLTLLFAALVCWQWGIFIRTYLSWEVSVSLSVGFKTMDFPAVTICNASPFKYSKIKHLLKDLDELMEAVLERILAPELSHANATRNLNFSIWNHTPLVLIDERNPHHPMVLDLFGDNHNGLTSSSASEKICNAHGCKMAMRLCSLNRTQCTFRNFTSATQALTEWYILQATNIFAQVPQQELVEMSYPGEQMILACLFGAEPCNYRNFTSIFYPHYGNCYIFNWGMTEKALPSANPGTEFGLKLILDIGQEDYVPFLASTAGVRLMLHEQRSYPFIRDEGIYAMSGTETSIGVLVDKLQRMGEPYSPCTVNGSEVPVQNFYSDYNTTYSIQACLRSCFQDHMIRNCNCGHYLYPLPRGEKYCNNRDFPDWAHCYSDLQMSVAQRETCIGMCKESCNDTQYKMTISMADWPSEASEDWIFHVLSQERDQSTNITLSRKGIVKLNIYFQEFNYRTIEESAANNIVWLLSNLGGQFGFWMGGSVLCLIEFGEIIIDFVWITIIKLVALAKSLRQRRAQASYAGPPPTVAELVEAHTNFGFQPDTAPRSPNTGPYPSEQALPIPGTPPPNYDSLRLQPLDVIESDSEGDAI
T1 sequence (P51170 1-649 partner): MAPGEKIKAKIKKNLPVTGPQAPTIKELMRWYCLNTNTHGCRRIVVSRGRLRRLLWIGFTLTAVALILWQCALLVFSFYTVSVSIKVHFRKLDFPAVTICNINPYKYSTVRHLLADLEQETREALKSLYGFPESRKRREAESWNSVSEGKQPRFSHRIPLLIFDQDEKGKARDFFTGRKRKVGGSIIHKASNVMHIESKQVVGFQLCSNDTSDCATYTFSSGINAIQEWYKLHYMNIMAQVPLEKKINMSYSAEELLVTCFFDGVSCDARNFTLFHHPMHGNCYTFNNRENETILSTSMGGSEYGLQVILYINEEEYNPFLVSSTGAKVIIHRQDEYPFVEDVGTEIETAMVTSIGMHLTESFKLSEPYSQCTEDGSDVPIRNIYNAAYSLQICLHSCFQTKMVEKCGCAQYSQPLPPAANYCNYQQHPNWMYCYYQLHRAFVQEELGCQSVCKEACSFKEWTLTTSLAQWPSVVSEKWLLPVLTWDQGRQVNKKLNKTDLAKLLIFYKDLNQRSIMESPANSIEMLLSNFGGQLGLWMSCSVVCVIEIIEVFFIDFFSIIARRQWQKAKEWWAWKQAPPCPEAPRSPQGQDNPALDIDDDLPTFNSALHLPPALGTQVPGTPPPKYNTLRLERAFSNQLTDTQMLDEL
Type: cell-based
Conditions: A549 cells, whole-cell patch clamp; for ENaC-activating effect / effect on sodium current (in words): no concentration stated at the place

CGQREAPAGAAAKPWYC (disulfide 1-17) [compound 12, reference compound]
Effect on ENaC (concentrations up to 480 nM): no effect
ENaC-activating effect / effect on sodium current (in words): ineffective; also recorded: no effect

CQRETPEGAEAKGGC (disulfide 1-15) [compound 2]
Effect on ENaC (concentrations up to 480 nM): no effect
ENaC-activating effect / effect on sodium current (in words): ineffective; also recorded: inactive

Cyclo(4-aminobutanoic acid-GQRETPEGAEAKPWYG) (head to tail) [compound 7]
Effect on ENaC (concentrations up to 240 nM): no effect
Effect on ENaC (concentrations up to 480 nM): no effect
ENaC-activating effect / effect on sodium current (in words): did not affect ENaC; also recorded: inactive

Cyclo(5-aminopentanoic acid-GQRETPEGAEAKPWYG) (head to tail) [compound 6]
Effect on ENaC (concentrations up to 240 nM): no effect
Effect on ENaC (concentrations up to 480 nM): no effect
ENaC-activating effect / effect on sodium current (in words): did not affect ENaC; also recorded: inactive

Cyclo(6-aminohexanoic acid-GQRETPEGAEAKPWYG) (head to tail) [compound 11]
Effect on ENaC (concentrations up to 240 nM): no effect
Effect on ENaC (concentrations up to 480 nM): no effect
ENaC-activating effect / effect on sodium current (in words): inactive
ENaC-activating effect / effect on sodium current (in words) (listed as 22): did not affect ENaC

Cyclo(7-aminoheptanoic acid-GQRETPEGAEAKPWY) (head to tail) [compound 10]
Effect on ENaC (concentrations up to 240 nM): no effect
Effect on ENaC (concentrations up to 480 nM): no effect
